From article PMC5614982, “Impact of Gastric H^+/K^+-ATPase rs2733743 on the Intragastric pH-Values of Dexlansoprazole Injection in Chinese Subjects” (Frontiers in Pharmacology, 2017)
Marks after values point to notes of the source that are not given here.

Tested on: intragastric pH
Assay: 24-h intragastric pH monitoring after single intravenous dexlansoprazole in healthy Chinese subjects
Type: in vivo, human
Conditions: for AUCτ 1−τ 2pH−t: second AUC line
Experimental: Dexlansoprazole injection (30 mg per vial) used in the PK and PD study was manufactured by Nanjing Yoko Pharma Co., Ltd. (Nanjing, China). Subjects received an intravenous infusion of 20 or 30 mg dexlansoprazole injection in sterile saline solution (100 mL/h, 60 min). The study drug was administrated with an infusing pump (SA213, Lifepum, Beijing, China) and given through an intravenous catheter in the antecubital vein opposite to the one from which blood samples were taken.
An ambulatory pH recorder (Orion II, MMS, USA) with a disposable pH catheter (VersaFlex, MMS, USA) was used to monitor intragastric pH. The electrode was placed in water for at least 10 min and then calibrated using standard buffer solutions (pH 1.07 and 7.01) before intubation. Both calibration and intubation processes were conducted under the guidance of MMS Virtual Instructor Program. The catheter, trans nasally placed 10 cm under the lower esophageal sphincter, was identified by a sharp decrease in pH (Wang et al., [2010], [2011]). Subjects were intubated on baseline and the day of dosing at about 7:30 a.m., and the intragastric pH data were recorded continuously for 24 h from 8:00 a.m. Intragastric pH was sampled every second, and the data were stored in a MMS Database program (MMS, USA). The PD parameters including Median (pH), Mean (pH), TpH≥3 (%), TpH≥4 (%), TpH≥6 (%), TpH≥6, and AUC^pH−t were analyzed by the MMS Database program.
Median (pH) and mean (pH) were well-investigated in most studies, and the percentage time of pH ≥ 4 (or pH ≥ 4 holding time ratio) was the benchmark for predicting clinical efficacy of PPIs in treating acid-related diseases (Metz et al., [2009]). Novel parameter TpH≥6 (time to first gastric pH ≥ 6, min) and AUCτ 1-τ 2pH-t (area under pH-time curve from τ1 to τ2, pH·s) were defined to evaluate the velocity and extent of pharmacodynamics with more accuracy. All parameters were calculated and compared according to time periods of 0–24, 0–4, 4–10, 10–14, and 14–24 h post dosing.
The parameter AUCτ 1-τ 2pH-t was calculated as follows:
Where t represented the time duration measured by seconds, AUCτ 1-τ 210-t was the area between the pH line = 10 and the pH-time curve, which was generated by the MMS software.
Baseline-adjusted PD parameters were calculated as follows: for example, ΔAUC^pH−t = AUC^pH−t − AUC^pH−tbaseline, ΔMean (pH) = Mean (pH) − Mean (pH)^baseline, and ΔMedian (pH) = Median (pH) − Median (pH)^baseline.

[1] = 30 mg iv, H+/K+-ATPase Het (n = 10), 0–4 h
[2] = 30 mg iv, H+/K+-ATPase Het (n = 10), 0–24 h
[3] = 30 mg iv, H+/K+-ATPase Het (n = 10), 14–24 h
[4] = 30 mg iv, H+/K+-ATPase Hom (n = 10), 0–4 h
[5] = 30 mg iv, H+/K+-ATPase Hom (n = 10), 0–24 h
[6] = 30 mg iv, H+/K+-ATPase Hom (n = 10), 14–24 h
[7] = 30 mg iv, H+/K+-ATPase WT (n = 8), 0–4 h
[8] = 30 mg iv, H+/K+-ATPase WT (n = 8), 0–24 h
[9] = 30 mg iv, H+/K+-ATPase WT (n = 8), 14–24 h

Structure (SMILES): Cc1c(OCC(F)(F)F)ccnc1C[S@@+]([O-])c1nc2ccccc2[nH]1 [dexlansoprazole]
- ΔMedian (pH) [1]: 3.3 ± 2.0^c pH
- ΔTpH≥3(%) [1]: 52.6 ± 22.2%
- ΔTpH≥4 (%) [1]: 51.0 ± 20.6%
- ΔTpH≥6(%) [1]: 46.0 ± 33.2%
- Mean (pH) [2]: 5.9 ± 1.5 pH
- Median (pH) [2]: 6.0 ± 1.9 pH
- TpH≥3(%) [2]: 81.0 ± 20.9%
- TpH≥4(%) [2]: 74.9 ± 25.7%
- TpH≥6(%) [2]: 59.2 ± 25.9%
- ΔMean (pH) [2]: 3.0 ± 1.0^c pH
- ΔMedian (pH) [2]: 4.0 ± 1.6 pH
- ΔTpH≥3(%) [2]: 51.8 ± 14.2^c %
- ΔTpH≥4 (%) [2]: 54.9 ± 19.1^c %
- ΔTpH≥6(%) [2]: 47.2 ± 17.0^c %
- Mean (pH) [3]: 5.1 ± 1.9 pH
- Median (pH) [3]: 4.9 ± 2.3 pH
- TpH≥3(%) [3]: 72.0 ± 33.7%
- TpH≥4(%) [3]: 63.2 ± 38.0%
- TpH≥6(%) [3]: 41.0 ± 26.2%
- ΔMean (pH) [3]: 1.9 ± 0.9^c pH
- ΔMedian (pH) [3]: 2.1 ± 1.9^c pH
- ΔTpH≥3(%) [3]: 44.1 ± 21.3^c %
- ΔTpH≥4 (%) [3]: 37.7 ± 20.5^c %
- ΔTpH≥6(%) [3]: 17.4 ± 11.2^c %
- Mean (pH) [4]: 6.2 ± 0.8 pH
- Median (pH) [4]: 7.5 ± 0.6 pH
- TpH≥3(%) [4]: 78.0 ± 7.4%
- TpH≥4(%) [4]: 73.1 ± 12.6%
- TpH≥6(%) [4]: 70.3 ± 14.7%
- ΔMean (pH) [4]: 4.2 ± 0.3^a pH
- ΔMedian (pH) [4]: 5.8 ± 0.3^a^,^b pH
- ΔTpH≥3(%) [4]: 68.4 ± 8.6%
- ΔTpH≥4 (%) [4]: 67.5 ± 8.7%
- ΔTpH≥6(%) [4]: 67.9 ± 12.4%
- Mean (pH) [5]: 7.0 ± 0.6 pH
- Median (pH) [5]: 7.5 ± 0.6 pH
- TpH≥3(%) [5]: 95.7 ± 1.3%
- TpH≥4(%) [5]: 91.7 ± 4.9%
- TpH≥6(%) [5]: 80.2 ± 7.5%
- ΔMean (pH) [5]: 4.5 ± 0.7^a^,^b pH
- ΔMedian (pH) [5]: 5.5 ± 0.5^a pH
- ΔTpH≥3(%) [5]: 75.4 ± 7.6^a^,^b %
- ΔTpH≥4 (%) [5]: 79.9 ± 6.6^b %
- ΔTpH≥6(%) [5]: 75.3 ± 9.3^a^,^b %
- Mean (pH) [6]: 6.6 ± 0.8 pH
- Median (pH) [6]: 6.7 ± 1.1 pH
- TpH≥3(%) [6]: 98.5 ± 1.8%
- TpH≥4(%) [6]: 91.0 ± 10.4%
- TpH≥6(%) [6]: 66.9 ± 17.6%
- ΔMean (pH) [6]: 4.0 ± 1.1^b pH
- ΔMedian (pH) [6]: 4.7 ± 1.0^b pH
- ΔTpH≥3(%) [6]: 84.0 ± 9.1^a^,^b %
- ΔTpH≥4 (%) [6]: 80.9 ± 11.2^a^,^b %
- ΔTpH≥6(%) [6]: 59.2 ± 21.4^a^,^b %
- Mean (pH) [7]: 5.1 ± 1.4 pH
- Median (pH) [7]: 5.6 ± 2.0 pH
- TpH≥3(%) [7]: 69.5 ± 24.9%
- TpH≥4(%) [7]: 63.3 ± 26.8%
- TpH≥6(%) [7]: 46.8 ± 27.3%
- ΔMean (pH) [7]: 2.9 ± 1.0^c pH
- ΔMedian (pH) [7]: 3.5 ± 1.7^c pH
- ΔTpH≥3(%) [7]: 54.0 ± 28.3%
- ΔTpH≥4 (%) [7]: 53.6 ± 23.3%
- ΔTpH≥6(%) [7]: 42.6 ± 23.6%
- Mean (pH) [8]: 5.7 ± 0.9 pH
- Median (pH) [8]: 6.0 ± 1.1 pH
- TpH≥3(%) [8]: 81.1 ± 14.2%
- TpH≥4(%) [8]: 75.6 ± 17.1%
- TpH≥6(%) [8]: 57.1 ± 18.8%
- ΔMean (pH) [8]: 3.0 ± 1.0^c pH
- ΔMedian (pH) [8]: 3.7 ± 1.0^c pH
- ΔTpH≥3(%) [8]: 52.6 ± 21.0^c %
- ΔTpH≥4 (%) [8]: 57.3 ± 22.3%
- ΔTpH≥6(%) [8]: 51.2 ± 17.1^c %
- Mean (pH) [9]: 5.1 ± 1.3 pH
- Median (pH) [9]: 4.7 ± 1.7 pH
- TpH≥3(%) [9]: 70.7 ± 27.8%
- TpH≥4(%) [9]: 62.5 ± 31.5%
- TpH≥6(%) [9]: 43.7 ± 25.6%
- ΔMean (pH) [9]: 2.6 ± 1.3 pH
- ΔMedian (pH) [9]: 2.8 ± 1.7 pH
- ΔTpH≥3(%) [9]: 56.6 ± 27.3^c %
- ΔTpH≥4 (%) [9]: 50.7 ± 30.9^c %
- ΔTpH≥6(%) [9]: 33.3 ± 25.5^c %
- AUCτ 1−τ 2pH−t (20 mg iv, 0–4 h): 501 ± 268 pH·h
- AUCτ 1−τ 2pH−t (20 mg iv, 10–14 h): 784 ± 346 pH·h
- AUCτ 1−τ 2pH−t (20 mg iv, 14–24 h): 942 ± 632 pH·h
- AUCτ 1−τ 2pH−t (30 mg iv, 0–4 h): 793 ± 268 pH·h
- AUCτ 1−τ 2pH−t (30 mg iv, CYP2C19 EM (n = 11), 0–4 h): 762 ± 250 pH·h
- AUCτ 1−τ 2pH−t (30 mg iv, CYP2C19 EMs, H+/K+-ATPase Het (n = 8), 0–4 h): 531 ± 194^c pH·h
- AUCτ 1−τ 2pH−t (30 mg iv, CYP2C19 EMs, H+/K+-ATPase Het (n = 8), 14–24 h): 755 ± 198^c pH·h
- AUCτ 1−τ 2pH−t (30 mg iv, CYP2C19 EMs, H+/K+-ATPase WT (n = 6), 0–4 h): 817 ± 157 pH·h
- AUCτ 1−τ 2pH−t (30 mg iv, CYP2C19 EMs, H+/K+-ATPase WT (n = 6), 14–24 h): 968 ± 553^c pH·h
- AUCτ 1−τ 2pH−t (30 mg iv, CYP2C19 IM (n = 10), 0–4 h): 789 ± 405 pH·h
- AUCτ 1−τ 2pH−t (30 mg iv, CYP2C19 PM (n = 7), 0–4 h): 837 ± 235 pH·h
- AUCτ 1−τ 2pH−t [1]: 727 ± 297 pH·h
- AUCτ 1−τ 2pH−t [7]: 681 ± 248^c pH·h
